test system: phosphorylation of MAP kinase (ERK) in murine colon 26 (C26) carcinoma cells; test: Cellular inhibition of ERK phosphorylation, C26ELSA (pERK ELISA format); type: cell-based; conditions: Mus musculus, 1 h, C26 cells treated with test compound for one hour at 37° C.
Protocol: MEK inhibitors were evaluated by determining their ability to inhibit phosphorylation of MAP kinase (ERK) in murine colon 26 (C26) carcinoma cells. Since ERK1 and ERK2 represent the only known substrates for MEK1and MEK2, the measurement of inhibition of ERK phosphorylation in cells provides direct read out of cellular MEK inhibition by the compounds of the invention. Detection of phosphorylation of ERK was carried out either by Western blot or ELISA format. Briefly, the assays involve treatment of exponentially growing C26 cells with varying concentrations of the test compound (or vehicle control) for one hour at 37° C. For Western blot assay, cells were rinsed free of compound/vehicle and lysed in a solution containing 70 mM NaCl, 50 mM glycerol phosphate, 10 mM HEPES, pH 7.4, 1% Triton X-100, 1 mM Na3VO4, 100 μM PMSF, 10 μM leupeptin and 10 μM pepstatin. Supernatants were then subjected to gel electrophoresis and hybridized to a primary antibody recognizing dually phosphorylated ERK1 and ERK2. To evaluate total MAPK levels, blots were subsequently ‘stripped’ and re-probed with a 1:1 mixture of polyclonal antibodies recognizing unphosphorylated ERK1 and ERK2. For pERK ELISA assay, pERK TiterZyme Enzyme immunometric Assay kits were acquired from Assay Designs, Inc (Ann Arbor, Mich.). Briefly, cells were harvested in lysis solution containing 50 mM β-glycerophosphate, 10 mM HEPES, ph7.4, 70 mM NaCl, 2 mM EDTA and 1% SDS and protein lysates were diluted 1:15 with supplied Assay buffer prior to the execution of the assay. The subsequent steps were carried out essentially as recommended by the manufacturer.
The inhibition data generated by the above protocols is disclosed in Table I. If several concentrations of inhibitor were tested, IC50 values (the concentration which gives 50% inhibition) were determined graphically from the dose response curve for % inhibition. Otherwise, percent inhibitions at measured concentrations are reported.

IC50 | Compound
4.4 nM | Cn1cc(C(N)=O)c(Nc2ccc(I)cc2F)cc1=O [Example 10, 4-(2-Fluoro-4-iodoanilino)-1-methyl-6-oxo-1,6-dihydro-3-pyridinecarboxamide]
150 nM | CSc1ccc(Nc2cc(=O)n(C)cc2C(=O)NCCCO)c(F)c1 [Example 85, 4-(2-Fluoro-4-methylsulfanyl-phenylamino)-1-methyl-6-oxo-1,6-dihydro-pyridine-3-carboxylic acid (3-hydroxy-propyl)-amide]

test system: not given; test: not given; conditions: not given

Compound | melting point
Cn1cc(C(N)=O)c(Nc2ccc(C(F)(F)C(F)(F)C(F)(F)C(F)(F)F)cc2F)cc1=O | 112 to 118 °C
C#Cc1ccc(Nc2cc(=O)[nH]cc2C(=O)NCCO)c(F)c1 [Example 12, 4-(4-Ethynyl-2-fluoroanilino)-N-(2-hydroxyethyl)-6-oxo-1,6-dihydro-3-pyridinecarboxamide] | 265 to 273 °C
CCc1ccc(Nc2cc(=O)[nH]cc2C(=O)NCCO)c(F)c1 [Example 13] | 256 to 258 °C
C#Cc1ccc(Nc2cc(=O)[nH]cc2C(=O)NCCCO)c(F)c1 [Example 15, 4-(4-Ethynyl-2-fluoroanilino)-N-(3-hydroxypropyl)-6-oxo-1,6-dihydro-3-pyridinecarboxamide] | 249 to 252 °C
CCc1ccc(Nc2cc(=O)n(C)cc2C(N)=O)c(F)c1 [Example 18, 4-(4-Ethyl-2-fluoroanilino)-1-methyl-6-oxo-1,6-dihydro-3-pyridinecarboxamide] | 268 to 272 °C
NC(=O)c1cn(CCO)c(=O)cc1Nc1ccc(I)cc1F [Example 22, 4-(2-Fluoro-4-iodoanilino)-1-(2-hydroxyethyl)-6-oxo-1,6-dihydro-3-pyridinecarboxamide] | 212 to 215 °C
NC(=O)c1cn(CC(=O)O)c(=O)cc1Nc1ccc(I)cc1F [Example 25] | 296 to 300 °C
N#CCCCn1cc(C(N)=O)c(Nc2ccc(I)cc2F)cc1=O [Example 26, 1-(3-Cyanopropyl)-4-(2-fluoro-4-iodoanilino)-6-oxo-1,6-dihydro-3-pyridinecarboxamide] | 146 to 150 °C
CCn1cc(C(N)=O)c(Nc2ccc(I)cc2F)cc1=O [Example 27, 1-Ethyl-4-(2-fluoro-4-iodoanilino)-6-oxo-1,6-dihydro-3-pyridinecarboxamide] | 260 to 262 °C
CCCn1cc(C(N)=O)c(Nc2ccc(I)cc2F)cc1=O [Example 28, 4-(2-Fluoro-4-iodoanilino)-6-oxo-1-propyl-1,6-dihydro-3-pyridinecarboxamide] | 218 to 220 °C
COCCOCCn1cc(C(N)=O)c(Nc2ccc(I)cc2F)cc1=O [Example 29, 4-(2-Fluoro-4-iodoanilino)-1-[2-(2-methoxyethoxy)ethyl]-6-oxo-1,6-dihydro-3-pyridinecarboxamide] | 114 to 116 °C
NC(=O)c1cn(CCCO)c(=O)cc1Nc1ccc(I)cc1F [Example 32, 4-(2-Fluoro-4-iodoanilino)-1-(3-hydroxypropyl)-6-oxo-1,6-dihydro-3-pyridinecarboxamide] | 220 to 223 °C
Cn1cc(C(N)=O)c(Nc2ccc3ccccc3c2)cc1=O [Example 43, 1-Methyl-4-(2-naphthylamino)-6-oxo-1,6-dihydro-3-pyridinecarboxamide] | 254 to 257 °C
CN(C)C(=O)c1cn(C)c(=O)cc1Nc1ccc(I)cc1F [Example 52, 4-(2-Fluoro-4-iodoanilino)-N,N,1-trimethyl-6-oxo-1,6-dihydro-3-pyridinecarboxamide] | 106 to 111 °C
Cn1cc(C(N)=O)c(Nc2ccc(C#N)cc2F)cc1=O [Example 54, 4-(4-Cyano-2-fluoroanilino)-1-methyl-6-oxo-1,6-dihydro-3-pyridinecarboxamide] | 261 to 266 °C
Cn1cc(C(=O)O)c(Nc2ccc(I)cc2F)cc1=O [Example 55, 4-(2-fluoro-4-iodoanilino)-1-methyl-6-oxo-1,6-dihydro-3-pyridinecarboxylic acid] | 254 to 257 °C
Cn1cc(C(N)=O)c(Nc2ccc(Cl)c(Cl)c2)cc1=O [Example 56, 4-(3,4-Dichloro-phenylamino)-1-methyl-6-oxo-1,6-dihydro-pyridine-3-carboxylic acid amide] | > 250 °C
Cc1ccc(Nc2cc(=O)n(C)cc2C(=O)O)cc1C [Example 63, 4-(3,4-Dimethyl-phenylamino)-1-methyl-6-oxo-1,6-dihydro-pyridine-3-carboxylic acid] | 238 to 242 °C
Cn1cc(C(=O)O)c(Nc2ccc3c(c2)CCC3)cc1=O [Example 64, 4-(Indan-5-ylamino)-1-methyl-6-oxo-1,6-dihydro-pyridine-3-carboxylic acid] | 218 to 220 °C
Cn1cc(C(=O)O)c(Nc2ccc(Cl)c(Cl)c2Cl)cc1=O [Example 65, 1-Methyl-6-oxo-4-(2,3,4-trichloro-phenylamino)-1,6-dihydro-pyridine-3-carboxylic acid] | 258 to 261 °C

Next, values leading:

melting point | Compound
205 to 208 °C | Cn1cc(C(=O)NCCO)c(Nc2ccc(I)cc2F)cc1=O [Example 4, 4-(2-Fluoro-4-iodoanilino)-N-(2-hydroxyethyl)-1-methyl-6-oxo-1,6-dihydro-3-pyridinecarboxamide]
231 to 233 °C | CCc1ccc(Nc2cc(=O)[nH]cc2C(=O)NCCCO)c(F)c1 [Example 16, 4-(4-Ethyl-2-fluoroanilino)-N-(3-hydroxypropyl)-6-oxo-1,6-dihydro-3-pyridinecarboxamide]
174 to 176 °C | O=C(NCCCO)c1cn(CCO)c(=O)cc1Nc1ccc(I)cc1F [Example 23, 4-(2-Fluoro-4-iodoanilino)-1-(2-hydroxyethyl)-N-(3-hydroxypropyl)-6-oxo-1,6-dihydro-3-pyridinecarboxamide]
232 to 238 °C | Cn1cc(C(=O)NOCCO)c(Nc2ccc(F)cc2F)cc1=O [Example 33, 4-(2,4-Difluoroanilino)-N-(2-hydroxyethoxy)-1-methyl-6-oxo-1,6-dihydro-3-pyridinecarboxamide]
129 to 132 °C | Cn1cc(C(=O)NCCCO)c(Nc2ccc(F)cc2F)cc1=O [Example 34, 4-(2,4-Difluoroanilino)-N-(3-hydroxypropyl)-1-methyl-6-oxo-1,6-dihydro-3-pyridinecarboxamide]
110 to 115 °C | Cc1ccc(Nc2cc(=O)n(C)cc2C(=O)NOCCO)c(F)c1 [Example 35, 4-(2-Fluoro-4-methylanilino)-N-(2-hydroxyethoxy)-1-methyl-6-oxo-1,6-dihydro-3-pyridinecarboxamide]
142 to 145 °C | Cc1ccc(Nc2cc(=O)n(C)cc2C(=O)NCCCO)c(F)c1 [Example 36, 4-(2-Fluoro-4-methylanilino)-N-(3-hydroxypropyl)-1-methyl-6-oxo-1,6-dihydro-3-pyridinecarboxamide]
124 to 128 °C | Cn1cc(C(=O)NOCCO)c(Nc2ccc(Br)cc2F)cc1=O [Example 38, 4-(4-Bromo-2-fluoroanilino)-N-(2-hydroxyethoxy)-1-methyl-6-oxo-1,6-dihydro-3-pyridinecarboxamide]
167 to 170 °C | Cn1cc(C(=O)NCCCO)c(Nc2ccc(Br)cc2F)cc1=O [Example 39, 4-(4-Bromo-2-fluoroanilino)-N-(3-hydroxypropyl)-1-methyl-6-oxo-1,6-dihydro-3-pyridinecarboxamide]
96 to 101 °C | Cn1cc(C(=O)NCC(O)CO)c(Nc2ccc(I)cc2F)cc1=O (stereo not drawn) [Example 45, N-(2,3-Dihydroxypropyl)-4-(2-fluoro-4-iodoanilino)-1-methyl-6-oxo-1,6-dihydro-3-pyridinecarboxamide]
93 to 98 °C | Cn1cc(C(=O)NC(CO)CO)c(Nc2ccc(I)cc2F)cc1=O [Example 46, 4-(2-Fluoro-4-iodoanilino)-N-[2-hydroxy-1-(hydroxymethyl)ethyl]-1-methyl-6-oxo-1,6-dihydro-3-pyridinecarboxamide]
198 to 202 °C | CC(CO)NC(=O)c1cn(C)c(=O)cc1Nc1ccc(I)cc1F (stereo not drawn) [Example 49, 4-(2-Fluoro-4-iodoanilino)-N-(2-hydroxy-1-methylethyl)-1-methyl-6-oxo-1,6-dihydro-3-pyridinecarboxamide]
161 to 166 °C | CC(O)CNC(=O)c1cn(C)c(=O)cc1Nc1ccc(I)cc1F (stereo not drawn) [Example 50, 4-(2-Fluoro-4-iodoanilino)-N-(2-hydroxypropyl)-1-methyl-6-oxo-1,6-dihydro-3-pyridinecarboxamide]
201 to 206 °C | Cn1cc(C(=O)NCCCN)c(Nc2ccc(I)cc2F)cc1=O [Example 53, N-(3-Aminopropyl)-4-(2-fluoro-4-iodoanilino)-1-methyl-6-oxo-1,6-dihydro-3-pyridinecarboxamide]
